Test results published in patent publication US20110313001A1, “TRIAZOLE DERIVATIVES FOR TREATMENT OF ALZHEIMER'S DISEASE” (priority 2008, published 2011).
Structures can show the parent of a compound that is named as a salt.

Each molecule was assayed on Aβ(1-42) (assay: Cell-based γ-secretase assay, Aβ(1-42) inhibition). Conditions: Homo sapiens; SH-SY5Y neuroblastoma cells overexpressing SPA4CT.
Method: Cell-Based γ-Secretase Assay
Human SH-SY5Y neuroblastoma cells overexpressing the direct γ-secretase substrate SPA4CT were induced with sodium butyrate (10 mM) for 4 hours prior to plating. Cells were plated at 35,000 cells/well/100 μl in 96-well plates in phenol red-free MEM/10% FBS, 50 mM HEPES, 1% Glutamine and incubated for 2 hrs at 37° C., 5% CO2.
Compounds for testing were diluted into Me2SO to give a ten point dose-response curve. Typically 10 μl of these diluted compounds in Me2SO were further diluted into 182 μl dilution buffer (phenol red-free MEM/10% FBS, 50 mM HEPES, 1% Glutamine) and 10 μl of each dilution was added to the cells in 96-well plates (yielding a final Me2SO concentration of 0.5%). Appropriate vehicle and inhibitor controls were used to determine the window of the assay.
After incubation overnight at 37° C., 5% CO2, 25 μl and 50 μl media were transferred into a standard Meso avidin-coated 96-well plate for detection of Aβ(40) and Aβ(42) peptides, respectively. 25 μl Meso Assay buffer (PBS, 2% BSA, 0.2% Tween-20) was added to the Aβ(40) wells followed by the addition of 25 μl of the respective antibody premixes to the wells:
Aβ(40) premix: 1 μg/ml ruthenylated G2-10 antibody, 4 μg/ml; and biotinylated 4G8 antibody diluted in Origen buffer
Aβ(42) premix: 1 μg/ml ruthenylated G2-11 antibody, 4 μg/ml; and biotinylated 4G8 antibody diluted in Origen buffer
(Biotinylated 4G8 antibody supplied by Signet Pathology Ltd; G2-10 and G2-11 antibodies supplied by Chemicon)
After overnight incubation of the assay plates on a shaker at 4° C., the Meso Scale Sector 6000 Imager was calibrated according to the manufacturer's instructions. After washing the plates 3 times with 150 μl of PBS per well, 150 μl Meso Scale Discovery read buffer was added to each well and the plates were read on the Sector 6000 Imager according to the manufacturer's instructions.
LD50 and IC50 values for inhibition of Aβ(40) and Aβ(42) were calculated by nonlinear regression fit analysis using the appropriate software (eg. Excel fit). The total signal and the background were defined by the corresponding Me2SO and inhibitor controls.

| IC50 [nM] | Structure (SMILES) |
| --- | --- |
| 203 | COc1cc(-c2cn(Cc3cc(C(F)(F)F)cc(C(F)(F)F)c3)nn2)ccc1-c1ccnc(C)c1 [Example 1, 4-{4-[1-(3,5-Bis-trifluoromethyl-benzyl)-1H-1,2,3-triazol-4-yl]-2-methoxy-phenyl}-2-methyl-pyridine trifluoromethansulfonate salt] |
| 335 | COc1cc(-c2cn(Cc3ccc(C(C)(C)C)cc3)nn2)ccc1-c1ccnc(C)c1 [Example 3] |
| 598 | COc1cc(-c2cn(Cc3cc(F)cc(Cl)c3)nn2)ccc1-c1ccnc(C)c1 [Example 4] |
| 392 | COc1cc(-c2cn(Cc3ccc(-c4nc5ccccc5o4)cc3)nn2)ccc1-c1ccnc(C)c1 [Example 5] |
| 172 | COc1cc(-c2cn(Cc3ccc4c(c3)C(C)(C)CCC4(C)C)nn2)ccc1-c1ccnc(C)c1 [Example 6] |
